Measurements reported in patent US20230293629A1, “METHODS FOR ATTENUATING RELEASE OF INFLAMMATORY MEDIATORS AND PEPTIDES USEFUL THEREIN” (BIOMARCK PHARMACEUTICALS LTD., priority 2006, published 2023).
Where “and” joins values, the source holds several entries; their conditions need not be identical. Equal entries are not always repeated. Where a SMILES comes first, the peptide text is derived from it. Where no end group is shown, it is not given here. The star is where a group is joined. Myristoyl = CCCCCCCCCCCCCC(=O)*

Tests used:
NK-92 cells = test: PMA-stimulated granzyme release from NK-92 cells (BLT hydrolysis); format: cell-based, human; conditions: 50 μM test peptide, two hour incubation with 100 nM PMA
Experimental: Three types of human leukocyte cell lines, specifically the promyelocytic cell line HL-60 clone 15, the monocytic cell line U937, and the lymphocyte natural killer cell line NK-92 were purchased from American Type Culture Collection (ATCC; Rockville, MD). HL-60 clone 15 cells (ATCC CRL-1964) were maintained in medium consisting of RPMI 1640 with L-glutamine supplemented with 10% heat-inactivated fetal bovine serum (Gibco; Invitrogen Co., Carlsbad, CA), 50 IU/ml penicillin, 50 μg/mL streptomycin, and 25 mM HEPES buffer, pH 7.8, at 37° C. in an atmosphere containing 5% CO2. […] Viability of cells harvested for experiments was assessed by trypan blue exclusion and populations of cells with viability >95% were used. […]
For measurements of released MPO from neutrophils and released lysozyme from U937 cells, we were able to quantify secretion by using as standards human MPO and […], respectively. For released EPO from HL-60 clone 15 cells and for released granzyme from NK-92 cells, no standards were available to use for quantification. […] To measure intracellular EPO in HL-60 clone 15 cells and intracellular granzyme in NK-92 cells, appropriate aliquots of 0.1% triton X-100-lysed cells were taken for quantification of intracellular granule proteins as described below. All treatments were expressed as percentage of control to minimize variability between cultures. […]

[1] = test system: ozone-induced neutrophil migration; test: Mouse model of ozone-induced COPD: neutrophil migration, IL-6, KC, IFNγ in BAL fluid; format: in vivo, mice; conditions: for Concentration of IFNγ in BAL fluid / Concentration of KC in BAL fluid / Concentration of IL-6 in BAL fluid: 25 μL 1.0 mM peptide intratracheal 30 min before 2 h ozone; for Concentration of IFNγ in BAL fluid: PBS+ozone 8.6, forced air 5.0; for Concentration of KC in BAL fluid: PBS+ozone 466.6, forced air 36.3; for Concentration of IL-6 in BAL fluid: PBS+ozone 1041.3, forced air 43.2
Experimental: Ten-week-old Balb/C female mice were obtained from Charles River laboratories and housed under NIH guidelines in groups of 5 per cage. The animals received standard rodent diet and filtered water ad libitum. Three treatment groups of mice, 5 animals in each group, were each anesthetized by intraperitoneal injection of Ketamine (100 mg/kg) and Xylazine (20 mg/kg) and then pretreated by intratracheal administration with 25 μL of either PBS alone, or a solution of 1.0 mM MANS peptide in PBS, or a solution of a 1.0 mM of an acetylated MANS-fragment-peptide Ac-[…] designated as acetylated SEQ ID NO: 106 in PBS. After 30 minutes, the animals were then placed in the appropriate custom-made chamber for ozone or forced air exposures. The animals were exposed to ozone for 2 hours (at ozone concentrations of 1-10 ppm by a slightly modified method described by Haddad et al, 1995. (Haddad E-B, Salmon M, Sun J, Liu S, Das A, Adcock I, Barnes P J, and Chung K F, FEBS Letters, 363:285-288, 1995). The ozone was generated using an ozone generator apparatus model OL80F/B from OzoneLab, Burton, British Columbia, Canada. Ozone concentration was continuously monitored using a Teledyne Photometric 03 Analyzer (model 400E, Teledyne Instruments, City of Industry, CA). Two additional groups of mice, each without any pretreatment, were either exposed to ozone under the same conditions or exposed to forced air under conditions similar to the ozone treatment group but absent ozone. After exposure, the animals were sacrificed by exsanguination and the lungs were serially lavaged 2 times with 1.0 mL aliquots of PBS. The collected bronchoalveolar lavage (BAL) fluid was centrifuged to remove the cells for subsequent counting and differential analysis. Recovered lavage fluid was used for protein and additional analysis of IL-6, IFNγ, and KC (murine IL-8 analog) by ELISA assay (assay kits obtained from R&D Systems, Minneapolis, MN).
The percent inhibition of neutrophil migration into the BAL fluid as a function of treatment groups and relative to a control group treated with PBS alone are provided in the table.

[2] = after ozone exposure, vs. PBS control, listed as acetylated SEQ ID NO:106

Row | Compound | % Inhibition Granzyme (NK-92 cells) [%] | Concentration of IFNγ in BAL fluid [1] | Concentration of KC in BAL fluid [1] | Concentration of IL-6 in BAL fluid [1] | % Inhibition of neutrophil migration into BAL fluid ([1]; Balb/C mice, intratracheal pretreatment with 25 μL of 1.0 mM peptide in PBS 30 minutes before 2 hours ozone exposure, relative to control group treated with PBS alone) [%] | effect on interferon-γ levels ([1]; after ozone exposure) | reduced neutrophil cell infiltration in the BAL fluid after ozone exposure ([1]; vs. PBS control) | diminished IL-6 levels / inhibition of IL-6 levels in BAL fluid [1, 2] | diminished KC concentrations / inhibition of KC levels in BAL fluid [1, 2]
1 | CCCCCCCCCCCCCC(=O)NCC(=O)N[C@@H](C)C(=O)N[C@@H](CCC(N)=O)C(=O)N[C@@H](Cc1ccccc1)C(=O)N[C@@H](CO)C(=O)N[C@@H](CCCCN)C(=O)N[C@H](C(=O)N[C@@H](C)C(=O)N[C@@H](C)C(=O)N[C@@H](CCCCN)C(=O)NCC(=O)N[C@@H](CCC(=O)O)C(=O)N[C@@H](C)C(=O)N[C@@H](C)C(=O)N[C@@H](C)C(=O)N[C@@H](CCC(=O)O)C(=O)N[C@@H](CCCNC(=N)N)C(=O)N1CCC[C@H]1C(=O)NCC(=O)N[C@@H](CCC(=O)O)C(=O)N[C@@H](C)C(=O)N[C@@H](C)C(=O)N[C@H](C(=O)N[C@@H](C)C(=O)O)C(C)C)[C@@H](C)O [MANS] (Myristoyl-GAQFSKTAAKGEAAAERPGEAAVA-OH; C-terminus assumed) | 76.0 | approximately 7.4 pg/mL | approximately 183.6 pg/mL | approximately 364.5 pg/mL | 93.0 | little effect | 93%±10% | – | –
2 | CCCCCCCCCCCCCC(=O)NCC(=O)N[C@H](C(=O)N[C@@H](C)C(=O)N1CCC[C@H]1C(=O)N[C@@H](C)C(=O)N[C@@H](C)C(=O)N[C@@H](CCC(=O)O)C(=O)NCC(=O)N[C@@H](C)C(=O)NCC(=O)N[C@@H](C)C(=O)N[C@@H](CCC(=O)O)C(=O)N[C@H](C(=O)N[C@@H](CCCCN)C(=O)N[C@@H](CCCNC(=N)N)C(=O)N[C@@H](C)C(=O)N[C@@H](CO)C(=O)N[C@@H](C)C(=O)N[C@@H](CCC(=O)O)C(=O)N[C@@H](C)C(=O)N[C@@H](CCCCN)C(=O)N[C@@H](CCC(N)=O)C(=O)N[C@@H](C)C(=O)N[C@@H](Cc1ccccc1)C(=O)O)C(C)C)[C@@H](C)O [RNS, reference compound] (Myristoyl-GTAPAAEGAGAEVKRASAEAKQAF-OH; C-terminus assumed) | 29.5 | – | – | – | – | – | – | – | –
3 | Ac-GAQFSKTAAK [Ac-GAQFSKTAAK] | – | approximately 3.6 pg/mL | approximately 159.7 pg/mL | approximately 130.4 pg/mL | – | little effect | 81%±10% | 91.3%±15% and ~91% | 71.3%±10% and ~71%
